Reference: patent US20230371515A1, “FUNGICIDAL COMBINATION” (UPL Limited, priority 2020, published 2023)
Where two headings read alike, the source gives them in different places.

Key:
[1] = tested on: spores of Botrytis cinerea; assay: EC50 for in vitro inhibition of 50% of fungal population of spores of Botrytis cinerea; type: cell-based
Description: As used herein, according to the Fungicide Resistance Action Committee (FRAC), ‘EC50’ is defined as the fungicide dose that inhibits growth by 50% when compared with a nonamended control.
The EC50 values were evaluated to determine a lower concentration of the fungicides and the combination to achieve in vitro inhibition of 50% of fungal population of spores of Botrytis cinerea.

[2] = tested on: Botrytis cinerea; assay: Fungicidal efficacy trial (% control) on Botrytis cinerea, synergy by Colby's equation; type: cell-based; settings: concentration 0.01 mg/L, observed efficacy
From the text: [table] Colby's equation was used to determine the fungicidal effects expected from the mixtures. The following equation was used to calculate the expected activity of mixtures containing two active ingredients, A and B: Expected=A+B−(A×B/100) • A=observed efficacy of active component A at the same concentration as used in the mixture; • B=observed efficacy of active component B at the same concentration as used in the mixture.

Row | SMILES | EC50 ([1]; read-out: EC50) | % control [2] | EC50 [1]
1 | O=C1C2CC=CCC2C(=O)N1SC(Cl)(Cl)Cl (stereo not shown) [Captan] | 0.15 mg/L | 11.54% | –
2 | COc1ccnc(C(=O)N[C@H]2COC(=O)[C@H](Cc3ccccc3)[C@@H](OC(=O)C(C)C)[C@H](C)OC2=O)c1OCOC(=O)C(C)C [Fenpicoxamide] | – | 15.45% | 0.46 mg/L
